This is an account of results in article PMC12228687, “Harnessing protein language model for structure-based discovery of highly efficient and robust PET hydrolases” (Nature Communications, 2025).

The target in this test is T1, FastPETase (mutant derived from IsPETase) (Pseudideonella sakaiensis, UniProt A0A0K8P6T7, S121E/D186H/R224Q/N233K/R280A, form not given).
T1 construct: gene ISF6_4831; engineered variant FastPETase; construct not described in the main text
Put plainly: p-nitrophenol release at […] nm, Michaelis-Menten nonlinear fit. The conditions noted are these: 10 mM potassium phosphate pH 8.0 (stock buffer), 50 °C, 3 min, 0.5 µg/mL enzyme, 0.2-1.8 mM pNPB. It is filed as biochemical.

T1 sequence (A0A0K8P6T7 28-290 S121E/D186H/R224Q/N233K/R280A, form open): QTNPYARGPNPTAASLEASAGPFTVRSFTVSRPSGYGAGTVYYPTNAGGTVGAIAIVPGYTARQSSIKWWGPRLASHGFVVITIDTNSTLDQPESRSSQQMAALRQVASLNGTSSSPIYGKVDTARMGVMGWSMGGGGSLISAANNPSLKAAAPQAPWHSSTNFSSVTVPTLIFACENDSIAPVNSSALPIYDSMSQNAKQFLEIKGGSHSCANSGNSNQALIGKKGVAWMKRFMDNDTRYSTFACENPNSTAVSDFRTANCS

For `CCCC(=O)Oc1ccc([N+](=O)[O-])cc1` [p-nitrophenyl butyrate], the Km turned out to be 1570 ± 416 µM.
